Patent US11767295B2, “Isoindole derivative” (TIANJIN HEMAY PHARMACEUTICAL CO., LTD., priority 2018, dated 2023)

Legend:
Type in all cases: in vivo
[1] = tested on: Phorbol ester (TPA)-induced ear swelling in mice; test: Inhibition of phorbol ester (TPA)-induced ear swelling in mice (Biological Example 5); conditions: ICR mice, 5 hours after TPA modeling
Experimental: (§1) 72 male ICR mice were selected and divided into 9 groups. There were 8 mice in each group.
(§2) Before the test, the animals were grouped and the hair around the right ear of the mice was removed.
(§3) 20 μL of respective drug was applied to the animals in each test group (a blank solvent was applied to the model control group). Modeling and induction were carried out after 1 h 10 min. Except for the blank group, 20 μL of TPA at a concentration of 125 μg/mL were applied to the right ears of the animals for induction. After induction for 10 minutes, 20 μL of respective drug were applied to the right ears of the animals in each test group (a blank solvent was applied to the model control group).
(§4) After modeling for 5 hours, ear pieces of both sides on the same location of animals in each group were taken with a punch and weighed to calculate the ear swelling degree, ear swelling rate and inhibitory rate.
(§5) The ear swelling degree and ear swelling rate after modeling and administration for 5 hours were analyzed and tested with One-Way ANOVA multiple-group test index in SPSS17.0. P<0.05 indicated there were statistical differences. Ear swelling degree (mg)=right ear weight (mg)−left ear weight (mg); Ear swelling rate (%)=(right ear weight−left ear weight)/left ear weight×100%; Inhibitory rate of ear swelling degree (%)=1−(ear swelling degree of drug administration group−ear swelling degree of blank control group)/(ear swelling degree of model control group−ear swelling degree of blank control group)×100%.

[2] = tested on: DNCB-induced atopic dermatitis in Balb/c mice; test: Efficacy evaluation test of DNCB-induced atopic dermatitis in Balb/c mice model (Biological Example 1); conditions: BID × 10; for Inhibitory Rate of Ear Swelling Degree / Inhibitory Rate of Ear Thickness / Ear Thickness Change, Day 1 / Ear Thickness Change, Day 10 / Weight Changes of Animals, Day 10 / Ear Thickness Change, Day 17 / Weight Changes of Animals, Day 17 / Ear Thickness Change, Day 18 / Weight Changes of Animals, Day 18 / Ear Thickness / Ear Swelling Degree / IgE Concentration / Inhibitory Rate of IgE Concentration: 1 mg/mouse on ear; for Inhibitory Rate of Ear Swelling Degree / Inhibitory Rate of Ear Thickness / Ear Thickness / Ear Swelling Degree / IgE Concentration / Inhibitory Rate of IgE Concentration: 18th day; for Inhibitory Rate of Ear Swelling Degree / Inhibitory Rate of Ear Thickness / Inhibitory Rate of IgE Concentration: vs model and blank control; for Weight Changes of Animals, Day 1 / Inhibitory Rate of Ear Thickness / Ear Thickness Change, Day 1 / Ear Thickness Change, Day 10 / Weight Changes of Animals, Day 10 / Ear Thickness Change, Day 17 / Weight Changes of Animals, Day 17 / Ear Thickness Change, Day 18 / Weight Changes of Animals, Day 18 / Ear Thickness: Balb/c mice; for Weight Changes of Animals, Day 1: 1 mg/mouse (50 mg/mL, 20 μL) on ear; for Weight Changes of Animals, Day 1 / Ear Thickness Change, Day 1 / Ear Thickness Change, Day 10 / Weight Changes of Animals, Day 10 / Ear Thickness Change, Day 17 / Weight Changes of Animals, Day 17 / Ear Thickness Change, Day 18 / Weight Changes of Animals, Day 18: Mean ± S.D.; for Ear Thickness: Table 4; for Ear Swelling Degree: right minus left ear piece weight (8 mm punch); for IgE Concentration / Inhibitory Rate of IgE Concentration: serum
Experimental: 60 healthy male SPF Balb/c mice, each of which the body weight was 19-21 g, were randomly divided into 6 groups by body weight. There were 10 mice in each group.
Before the test, the hair around the right ear of the mouse was removed to reduce the interference in the drug adhesion to the hair.
The start of the test was recorded as Day 1. The specific time for measuring ear thickness was slightly adjusted based on FIG. 1. After the end of the 18th day of the test, blood was taken from each animal to detect the concentration of immunoglobulin (IgE) in the serum (in accordance with the kit instructions). Both ears of the animal were cut off. Ear pieces were cut by an 8 mm punch at the fixed position of the ears and weighed. Differences in the swelling degrees of two ears were calculated.
The changes in mouse ear thickness and the ear weights of the same area and the IgE concentrations in the serum among different groups on the 18th day were analyzed and compared statistically with One-Way Anova in SPSS 17, respectively. The G test method was used to delete outliers. p<0.05 indicated there were statistical differences. Ear swelling degree (mg)=right ear weight (mg)−left ear weight (mg); Ear thickness change (mm)=right ear thickness (mm)−left ear thickness (mm); Inhibitory rate of ear swelling degree (%)=1−(ear swelling degree of drug administration group−ear swelling degree of blank control group)/(ear swelling degree of model control group−ear swelling degree of blank control group)×100%; Inhibitory rate of ear thickness change (%)=1−(ear thickness change of drug administration group−ear thickness change of blank control group)/(ear thickness change of model control group−ear thickness change of blank control group)×100%; Inhibitory rate of IgE (%)=1−(IgE concentration in administration group−IgE concentration in blank control group)/(IgE concentration in model control group−IgE concentration in blank control group)×100%.

[3] = tested on: ICR mice; test: Acute toxicity test of single gavage in mice (Biological Example 9); conditions: ICR mice, single gavage 2000 mg/Kg; for Clinical observation: appearance, breath, behavior, reflex and defecation: male and female, observed 15 days; for Dissection and general observation of each organ / Organ indexes: end of the test
Experimental: 30 healthy ICR mice of SPF grade were randomly divided into 5 groups according to the gender segment, in which 15 mice were male and 15 mice were female. There were 3 mice/gender/group. There were 6 mice in each group, in which 3 mice were male and 3 mice were female.
Single administration by gavage was carried out. The symptoms and responses of all the animals were observed after the administration and were recorded faithfully. The test was observed continuously for 15 days. The symptoms of the animals were recorded. After the test, the tissues and organs of all the animals were weighed, observed and recorded. The specimens were kept.
Body weight, appearance, breath, behavior, reflex and defecation.

[4] = tested on: Phorbol ester (TPA)-induced ear swelling in mice; test: Inhibition of phorbol ester (TPA)-induced ear swelling in mice (Biological Example 6); conditions: ICR mice, 5 hours after TPA modeling
Experimental: as §1, §2, §3
After modeling for 5 hours, ear pieces of both sides at the same location of animals in each group were taken with a punch and weighed to calculate the ear swelling degree, ear swelling rate and inhibitory rate.
The ear swelling degree and ear swelling rate after modeling and administration for 5 hours were analyzed and tested with One-Way ANOVA multiple-group test index in SPSS17.0. […] Ear swelling degree (mg)=right ear weight (mg)−left ear weight (mg); Ear swelling rate (%)=(right ear weight−left ear weight)/left ear weight×100%; Inhibitory rate of ear swelling degree (%)=1−(swelling degree of drug administration group−swelling degree of blank control group)/(swelling degree of model control group−swelling degree of blank control group)×100%.

[5] = tested on: Phorbol ester (TPA)-induced ear swelling in mice; test: Inhibition of phorbol ester (TPA)-induced ear swelling in mice (Biological Example 4); conditions: ICR mice, 30 mg/mL in acetone, 40 μL in 2 administrations on right ear; 5 hours after TPA modeling
Experimental: 40 male ICR mice were selected and divided into 5 groups. There were 8 mice in each group.
as §2
20 μL of respective drug was applied to the animals in each test group (a blank solvent was applied to the model control group). Modeling and induction were carried out after 1 h 10 min. Except for the blank group, 20 μL of TPA at a concentration of 125 μg/mL were applied to the right ears of the animals for induction. After induction for 10 minutes, 20 μL of respective drug was applied to the right ears of the animals in each test group (a blank solvent was applied to the model control group).
as §4, §5

[6] = 2 mg/mouse on right ear, (right−left)/left ear weight
[7] = 2 mg/mouse on right ear, vs model and blank control
[8] = 50 mg/mL in acetone, 40 μL in 2 administrations (2 mg/mouse)

## CCCOC(=O)CC(c1ccc(OC)c(OCC)c1)N1C(=O)c2cccc(NC(C)=O)c2C1=O (stereo not drawn) [Example 11, propyl 3-(4-acetamido-1,3-dioxoisoindolin-2-yl)-3-(3-ethoxy-4-methoxyphenyl)propionate]
[1]; [6]
  Ear Swelling Rate: 46.3 ± 35.7 %
[1]; [7]
  Inhibitory Rate of Ear Swelling Degree: 81.7%
[1]; [8]
  Ear Swelling Degree: 6.5 ± 5.0 mg
[2]
  Inhibitory Rate of Ear Swelling Degree: 49.2%
  Weight Changes of Animals, Day 1: 20.3 ± 1.3 g
  Inhibitory Rate of Ear Thickness: 51.5%
  Ear Thickness Change, Day 1: 0.22 ± 0.01 mm
  Ear Thickness Change, Day 10: 0.33 ± 0.09 mm
  Weight Changes of Animals, Day 10: 21.6 ± 1.1 g
  Ear Thickness Change, Day 17: 0.35 ± 0.04 mm
  Weight Changes of Animals, Day 17: 21.2 ± 1.2 g
  Ear Thickness Change, Day 18: 0.48 ± 0.06 mm
  Weight Changes of Animals, Day 18: 21.1 ± 1.3 g
  Ear Thickness: 0.48 ± 0.06 mm
  Ear Swelling Degree: 12.8 ± 4.9 mg
  IgE Concentration: 5854.5 ± 2631.7 ng/mL
  Inhibitory Rate of IgE Concentration: 36.5%
[3]
  Clinical observation: appearance, breath, behavior, reflex and defecation: No obvious abnormalities of appearance, breath, behavior,
  Dissection and general observation of each organ: No obvious abnormalities related to the compounds were
  Organ indexes: No obvious abnormalities of organ indexes were observed.

## CCCOc1ccc(C(CC(=O)OC)N2C(=O)c3cccc(NC(C)=O)c3C2=O)cc1OCC (stereo not drawn) [Example 31, methyl 3-(4-acetamido-1,3-dioxoisoindolin-2-yl)-3-(3-ethoxy-4-propoxyphenyl)propionate]
[4]; [6]
  Ear Swelling Rate: 34.3 ± 14.9 %
[4]; [7]
  Inhibitory Rate of Ear Swelling Degree: 87.6%
[4]; [8]
  Ear Swelling Degree: 4.9 ± 2.0 mg
[3]
  Clinical observation: appearance, breath, behavior, reflex and defecation: No obvious abnormalities of appearance, breath, behavior,
  Dissection and general observation of each organ: No obvious abnormalities related to the compounds were
  Organ indexes: No obvious abnormalities of organ indexes were observed.

## CCOc1cc(C(CC(=O)OC)N2C(=O)c3cccc(NC(C)=O)c3C2=O)ccc1OC (stereo not drawn) [Example 1, methyl 3-(4-acetamido-1,3-dioxoisoindolin-2-yl)-3-(3-ethoxy-4-methoxyphenyl)propionate]
[5]
  Inhibitory Rate of Ear Swelling Degree: 60.1%
[2]
  Inhibitory Rate of Ear Swelling Degree: 21.3%
  Weight Changes of Animals, Day 1: 21.0 ± 0.8 g
  Inhibitory Rate of Ear Thickness: 22.5%
  Ear Thickness Change, Day 1: 0.22 ± 0.02 mm
  Ear Thickness Change, Day 10: 0.47 ± 0.02 mm
  Weight Changes of Animals, Day 10: 22.4 ± 0.8 g
  Ear Thickness Change, Day 17: 0.60 ± 0.08 mm
  Weight Changes of Animals, Day 17: 21.9 ± 1.1 g
  Ear Thickness Change, Day 18: 0.64 ± 0.07 mm
  Weight Changes of Animals, Day 18: 22.0 ± 1.3 g
  Ear Thickness: 0.64 ± 0.07 mm
  Ear Swelling Degree: 19.9 ± 5.1 mg
  IgE Concentration: 6631.4 ± 1431.1 ng/mL
  Inhibitory Rate of IgE Concentration: 25.6%

## CCOc1cc([C@@H](CC(=O)OC)N2C(=O)c3cccc(NC(C)=O)c3C2=O)ccc1OC [Example 9, methyl (R)-3-(4-acetamido-1,3-dioxoisoindolin-2-yl)-3-(3-ethoxy-4-methoxyphenyl)propionate]
[5]
  Inhibitory Rate of Ear Swelling Degree: 54.5%
